{"source": "patent US5192664A", "about": "“Parathyroid hypertensive factor, antibodies and uses thereof” (Pang; Peter K. T., priority 1990, dated 1993)", "test_system": "Blood Pressure in SHR", "test": "Feeding of nifedipine and dietary calcium to SHR rats for 8 weeks, mean blood pressure", "type": "in vivo, rat", "details": "for Blood Pressure in SHR: nifedipine 0 mg/kg food, 8 weeks feeding", "procedure": "Male rats of the SHR strain, obtained from Harlan Sprague-Dawley, 12 weeks old, were divided into groups of 12 or 24, and were fed prepared diets containing 0.2%, 0.4% and 0.8% elemental calcium, respectively. […] Distilled water was available ad lib. Feeding was continued for 8 weeks and the mean blood pressure of each animal was determined at the end of that time.", "data": [{"compound": "[Ca]", "note": "[Calcium]", "values": [{"measurement": "decrease in blood pressure", "setting": "4 times the amount of ordinary dietary calcium, no nifedipine", "value": "measurable, but small"}, {"measurement": "Blood Pressure in SHR", "setting": "dietary calcium 0.4%", "value": "164 ± 6", "unit": "mm Hg"}, {"measurement": "Blood Pressure in SHR", "setting": "dietary calcium 0.8%", "value": "169 ± 6", "unit": "mm Hg"}]}]}
